# Results reported in patent publication US12570614B2, “Phenyl amino pyrimidine compounds and uses thereof” (GlaxoSmithKline LLC, priority 2007, dated 2026).
# Entries after “also recorded” stand apart in the source; their conditions may differ.
# What was measured:
# [1] = system: BaF3 TELJAK cells (BafT_J2); assay: Cellular screening, BaF3 TELJAK2 cells (Alamar Blue); format: cell-based; settings: Mus musculus, BaF3; 48-72 hr incubation; read-out: BafT_J2_IC50_μM
# BaF3 wild-type cells = assay: Cellular screening, BaF3 wild-type cells (Alamar Blue); format: cell-based; settings: Mus musculus, 48-72 hr incubation, read-out: BAF3wt_IC50_μM
# In short: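 Parental BaF3 cells in DMEM with 10% FCS and 10% WEHI 3B conditioned medium were seeded at 50,000–200,000 cells/mL (1.1× final). Compounds were added as 10× solutions, with dilution plates prepared at 20 μM.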
# CTLL2 = assay: Cellular screening, CTLL2 cells (Alamar Blue); format: cell-based; settings: Mus musculus, CTLL-2; 48-72 hr incubation; read-out: CTLL2_IC50_μM
# [2] = system: IL-3 induced STAT5 phosphorylation in BaF3 cells; assay: Western blot of IL-3 induced STAT5 phosphorylation in BaF3 cells; format: cell-based, murine; settings: 2 hours compound, mouse IL-3 5 ng/ml 15 minutes
# Description: The Western blots were treated with a STAT5 phospho-specific antibody and exposed to film for 5 minutes (top blot) and 1 minute (middle blot).
# The murine pro-B cell line BaF3 was routinely maintained in RPMI 1640 media containing 10% FCS. On the day of the experiment, cells were washed twice in PBS, and resuspended in RPMI 1640 media containing 0.1% FCS. […] Mouse IL-3 was then added to cells at a final concentration of 5 ng/ml for 15 minutes. Cells were then placed on ice and washed twice in ice-cold PBS. Washed cell pellets were snap-frozen in liquid nitrogen and stored at −80° C.
# (§1) Cell pellets were lysed on ice in RIPA buffer, and lysates clarified by centrifugation (20,000×g, 4° C., 5 min). The protein concentration of lysates was determined by the Bradford method, and equal amounts of protein (60 μg/lane) were separated by SDS-PAGE. Protein was then transferred to PVDF, and Western blotting performed using an antibody that specifically recognizes STAT5 phosphorylated at tyrosine 694. The membrane was then stripped and reprobed with an antibody that recognizes total STAT5 protein.
# [3] = system: STAT5 phosphorylation in HEL 92.1.7 cells; assay: Western blot of STAT5 phosphorylation in HEL cells; format: cell-based, human; settings: 2 hours
# Description: The Western blots were treated with a STAT5 phosphospecific antibody and exposed to film for 5 minutes (top blot) and 1 minute (middle blot).
# The human erythroleukemic cell line HEL 92.1.7 was routinely maintained in RPMI 1640 media containing 10% FCS. The day before the experiment, cells were washed twice in PBS, resuspended in RPMI 1640 media containing 1% FCS, and cultured overnight.
# Cells were then placed on ice and washed twice in ice-cold PBS. Washed cell pellets were snap-frozen in liquid nitrogen and stored at −80° C.
# as §1
# [4] = system: growth hormone-stimulated insulin-like growth factor-1 (IGF-1); assay: Growth hormone-stimulated IGF-1 concentrations in mouse plasma; format: in vivo; settings: female C3/H mice, 50 mg/kg oral gavage 8 h and 30 min prior to GH, 6 h post-GH
# Description: Blood samples were collected 6 h post-GH administration, and plasma IGF-1 concentrations measured using an ELISA for mouse IGF-1 (R & D Systems). Different superscripts denote significant differences (p<0.05) between groups detected by one-way ANOVA and Bonferroni's test post-hoc.
# Ba/F3 TelJAK2 cells = assay: Subcutaneous tumour model of Ba/F3 TelJAK2 cells in nude mice; format: in vivo, mouse; settings: for tumour volumes compared to Vehicle Control Treated Group: after 14 days of dosing; for mean percentage T/C: dosing day 14
# Description: Dosing commenced 11 days post-tumour cell inoculation, when tumours were palpable (mean tumour volume of 6 mm^3). Tumour dimensions were measured twice weekly.
smiles,measurement,setting,value
"N#CCNC(=O)c1ccc(-c2ccnc(Nc3ccc(N4CCOCC4)cc3)n2)cc1 [Compound 3, N-(cyanomethyl)-4-(2-(4-morpholinophenyl-amino)pyrimidin-4-yl)benzamide]",IC50,[1],< 1 µM
same,IC50,BaF3 wild-type cells,< 5 µM
same,IC50,CTLL2,< 5 µM
same,effect on IL-3 induced STAT5 phosphorylation (Western blot),[2],dose-dependent effect; also recorded: decrease in STAT5 phosphorylation
same,effect on STAT5 phosphorylation (Western blot),[3],decrease in STAT5 phosphorylation
same,plasma IGF-1 concentration,[4],marked decrease
same,tumour volumes compared to Vehicle Control Treated Group,Ba/F3 TelJAK2 cells; 5 mg/kg,not different
same,mean percentage T/C,Ba/F3 TelJAK2 cells; 5 mg/kg/day oral gavage,82%
same,mean percentage T/C,Ba/F3 TelJAK2 cells; 10 mg/kg b.i.d. oral gavage,25%
same,tumour volumes compared to Vehicle Control Treated Group,"Ba/F3 TelJAK2 cells; 10 mg/kg b.i.d., t-test p<0.05",smaller tumour volumes
same,mean percentage T/C,Ba/F3 TelJAK2 cells; 20 mg/kg b.i.d. oral gavage,39%
same,tumour volumes compared to Vehicle Control Treated Group,"Ba/F3 TelJAK2 cells; 20 mg/kg b.i.d., t-test p<0.05",smaller tumour volumes
